Test results: patent US11427552B2, “Heterocyclic compounds useful in the treatment of disease” (EPIGEN BIOSCIENCES, INC., priority 2013, dated 2022)

Target: T1, LPA1R (Homo sapiens, UniProt Q92633)
T1 construct: host or cells: LPA1R expressing cells (Millipore, GPCR Profiler)
Experiment: LPA1R Ca2+ flux functional assay (antagonist mode, FLIPR)
Format: cell-based
Settings: inhibition of LPA-stimulated Ca2+ flux, LPA at EC80, LPA1R expressing cells (Millipore); read-out: LPA1 R Antagonist Activity
Protocol: Inhibition of LPA-stimulated Ca^2+ flux was used to assess compound potency using FLIPR technology in a 96 well plate format. The assay buffer used was a modified Hanks Balanced Salt Solution (HBSS) where HBSS was supplemented to contain 20 mM HEPES and 2.5 mM Probenecid at pH7.4 (Millipore, GPCR Profiler®). LPA1R expressing cells (Millipore) were plated and prepared 24 hours prior to assay of test articles. Ca^2+ ion flux was assessed from fluorescence of a Fluo-based No Wash Ca^2+ dye. Antagonist data are generated from plates with LPA concentrations sufficient to generate 80% efficacy [EC80]. Percentage inhibition was calculated from a reduction of efficacy according to concentration of compounds of Formula I-VI. For dose responses the inhibition data was used to calculate compound IC50. The agonist assay was conducted on a FLIPR^TETRA instrument where the test compound(s), vehicle controls, and reference agonist were added to the assay plate after a fluorescence baseline was established. The agonist assay was a total of 180 seconds and was used to assess each compound's ability to activate each GPCR assayed. Upon completion of the agonist assay, the assay plate was removed from the FLIPR^TETRA and incubated at 25° C. for seven (7) minutes. After the incubation period, the assay plate was placed back in the FLIPR^TETRA and the antagonist assay was initiated. Using EC80 potency values determined during the agonist assay, all pre-incubated sample compound wells were challenged with EC80 concentration of reference agonist after establishment of a fluorescence baseline. The antagonist assay was conducted using the same assay plate that was used for the agonist assay. The antagonist assay was conducted on a FLIPR^TETRA instrument where 9 vehicle controls and EC80 concentration of reference agonist were added to appropriate wells. The antagonist assay was a total of 180 seconds and was used to assess each compound's ability to inhibit each GPCR assayed. All assay plate data were subjected to appropriate baseline corrections. After baseline corrections were applied, maximum fluorescence values were exported and data processed to calculate percentage activation (relative to Emax reference agonist and vehicle control values), percentage inhibition (relative to EC80 and vehicle control values), and additional statistical values (i.e. Z′, percentage variation between replicate data values) to assess the quality of each plate. Where assay plate data were rejected, additional experiments were conducted. All dose response curves were generated using GraphPad Prism. The curves were fit by utilizing “Sigmoidal Dose Response (Variable Slope)” equation where the bottom parameter was fixed to “0.” Where appropriate, the top parameter was fixed to “100” to better predict potency values when a full curve was not generated by the concentrations assayed.

T1 sequence (Q92633 whole entry): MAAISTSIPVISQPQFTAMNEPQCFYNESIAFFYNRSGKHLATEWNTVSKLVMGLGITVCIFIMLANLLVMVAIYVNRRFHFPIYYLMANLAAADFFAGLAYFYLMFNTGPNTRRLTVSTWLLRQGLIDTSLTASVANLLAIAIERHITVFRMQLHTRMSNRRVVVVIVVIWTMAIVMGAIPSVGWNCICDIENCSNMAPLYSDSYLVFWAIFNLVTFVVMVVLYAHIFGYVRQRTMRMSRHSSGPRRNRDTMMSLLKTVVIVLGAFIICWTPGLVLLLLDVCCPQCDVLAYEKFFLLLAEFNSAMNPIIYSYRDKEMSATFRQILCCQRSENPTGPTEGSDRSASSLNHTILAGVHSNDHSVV

| IC50 [nM] | Molecule |
| --- | --- |
| < 300 | Cc1noc(-c2ccc(C(=O)N[C@H](Cc3ccc(F)c(F)c3)C(=O)O)cc2)c1NC(=O)O[C@H](C)c1ccccc1Cl [Example 23, (R)-2-(4-{4-[(R)-1-(2-Chloro-phenyl)-ethoxycarbonylamino]-3-methyl-isoxazol-5-yl}-benzoylamino)-3-(3,4-difluoro-phenyl)-propionic Acid] |
| 300 to 1000 | C[C@@H](OC(=O)Nc1c(C(F)(F)F)cnn1-c1ccc(-c2ccc(C3(C(=O)O)CC3)cc2F)cc1)c1ccccc1 [Example 55, (R)-1-{2-Fluoro-4′-[5-(1-phenyl-ethoxycarbonylamino)-4-trifluoromethyl-pyrazol-1-yl]-biphenyl-4-yl}-cyclopropanecarboxylic Acid] |
| < 300 | Cc1noc(-c2ccc(CN[C@H](CC3CC3)C(=O)O)cc2)c1NC(=O)O[C@H](C)c1ccccc1 [Example 34, (R)-3-Cyclopropyl-2-{4-[3-methyl-4-((R)-1-phenyl-ethoxycarbonylamino)-isoxazol-5-yl]-benzylamino}-propionic acid] |
| > 50000 | Cc1nn(C)c(-c2ccc(C(=O)N[C@H](Cc3ccc(F)c(F)c3)C(=O)O)cc2)c1NC(=O)O[C@H](C)c1ccccc1 [Example 15, (R)-3-(3,4-difluorophenyl)-2-[[4-[2,5-dimethyl-4-((R)-1-phenylethoxycarbonyl-amino)pyrazol-3-yl]benzoyl]amino]propanoic Acid] |
| < 300 | Cc1noc(-c2ccc(CN[C@H](Cc3ccccc3)C(=O)O)cc2)c1NC(=O)O[C@H](C)c1ccccc1Cl [Example 37, (R)-2-(4-{4-[(R)-1-(2-Chloro-phenyl)-ethoxycarbonylamino]-3-methyl-isoxazol-5-yl}-benzylamino)-3-phenyl-propionic Acid] |
| > 50000 | Cc1nn(C)c(-c2ccc(C(=O)N[C@H](Cc3ccc(Cl)cc3)C(=O)O)cc2)c1NC(=O)O[C@H](C)c1ccccc1 [Example 13, (R)-3-(4-chlorophenyl)-2-[[4-[2,5-dimethyl-4-((R)-1-phenylethoxycarbonyl-amino)pyrazol-3-yl]benzoyl]amino]propanoic Acid] |
| < 300 | Cc1noc(-c2ccc(COC(CC3CC3)C(=O)O)cc2)c1NC(=O)O[C@H](C)c1ccccc1 (mixture of isomers) [Example 44, (RS)-3-Cyclopropyl-2-{4-[3-methyl-4-((R)-1-phenyl-ethoxycarbonylamino)-isoxazol-5-yl]-benzyloxy}-propionic Acid] |
| < 300 | Cc1noc(-c2ccc(CN[C@H](Cc3ccccc3Cl)C(=O)O)cc2)c1NC(=O)O[C@H](C)c1ccccc1 [Example 35, (R)-3-(2-Chloro-phenyl)-2-{4-[3-methyl-4-((R)-1-phenyl-ethoxycarbonylamino)-isoxazol-5-yl]-benzylamino}-propionic Acid] |
| < 300 | Cc1noc(-c2ccc(CN[C@H](Cc3ccccc3Cl)C(=O)O)cc2)c1NC(=O)O[C@H](C)c1ccccc1Cl [Example 40, (R)-3-(2-Chloro-phenyl)-2-(4-{4-[(R)-1-(2-chloro-phenyl)-ethoxycarbonylamino]-3-methyl-isoxazol-5-yl}-benzylamino)-propionic Acid] |
| < 300 | Cc1noc(-c2ccc(COC(Cc3ccccc3)C(=O)O)cc2)c1NC(=O)O[C@H](C)c1ccccc1 (stereo partly drawn) [Example 42, 2-{4-[3-Methyl-4-((R)-1-phenyl-ethoxycarbonylamino)-isoxazol-5-yl]-benzyloxy}-3-phenyl-propionic Acid] |
| < 300 | Cc1noc(-c2ccc(CN[C@H](Cc3ccccc3F)C(=O)O)cc2)c1NC(=O)O[C@H](C)c1ccccc1 [Example 32, (R)-3-(2-Fluoro-phenyl)-2-{4-[3-methyl-4-((R)-1-phenyl-ethoxycarbonylamino)-isoxazol-5-yl]-benzylamino}-propionic Acid] |
| 1000 to 50000 | Cc1nn(C)c(-c2ccc(-c3ccc(C4(C(=O)O)CC4)cc3)cc2)c1NC(=O)O[C@H](C)c1ccccc1 [Example 48, (R)-1-[4-[4-[2,5-dimethyl-4-(1-phenylethoxycarbonylamino)pyrazol-3-yl]phenyl]phenyl]cyclopropane Carboxylic Acid] |
| > 50000 | Cc1c(NC(=O)O[C@H](C)c2ccccc2)c(-c2ccc(C(=O)N[C@H](Cc3ccc(Cl)cc3)C(=O)O)cc2)nn1C [Example 14, (R)-3-(4-chlorophenyl)-2-[[4-[1,5-dimethyl-4-((R)-1-phenylethoxycarbonyl-amino)pyrazol-3-yl]benzoyl]amino]propanoic Acid] |
| < 300 | Cc1noc(-c2ccc(C(=O)N[C@H](Cc3ccc(Br)cc3)C(=O)O)cc2)c1NC(=O)O[C@H](C)c1ccccc1Cl [Example 25, (R)-3-(4-Bromo-phenyl)-2-(4-{4-[(R)-1-(2-chloro-phenyl)-ethoxycarbonylamino]-3-methyl-isoxazol-5-yl}-benzoylamino)-propionic Acid] |
| < 300 | Cc1noc(-c2ccc(CN[C@H](Cc3ccc(C(F)(F)F)cc3)C(=O)O)cc2)c1NC(=O)O[C@H](C)c1ccccc1Cl [Example 39, (R)-2-(4-{4-[(R)-1-(2-Chloro-phenyl)-ethoxycarbonylamino]-3-methyl-isoxazol-5-yl}-benzylamino)-3-(4-trifluoromethyl-phenyl)-propionic Acid] |
| < 300 | Cc1noc(-c2ccc(CN[C@H](Cc3ccc(Cl)cc3)C(=O)O)cc2)c1NC(=O)O[C@H](C)c1ccccc1 [Example 36, (R)-3-(4-Chloro-phenyl)-2-{4-[3-methyl-4-((R)-1-phenyl-ethoxycarbonylamino)-isoxazol-5-yl]-benzylamino}-propionic Acid] |
| 300 to 1000 | Cc1noc(-c2ccc(C(=O)NC(Cc3ccccc3)C(=O)O)cc2)c1NC(=O)OC(C)c1ccccc1Cl [Example 4, 2-(R)-(4-{4-[(R,S)-1-(2-Chloro-phenyl)-ethoxycarbonylamino]-3-methyl-isoxazol-5-yl}-benzoylamino) Phenyl Propanoic Acid] |
| < 300 | Cc1noc(-c2ccc(CN[C@H](CC3CC3)C(=O)O)cc2)c1NC(=O)O[C@H](C)c1ccccc1Cl [Example 41, (R)-2-(4-{4-[(R)-1-(2-Chloro-phenyl)-ethoxycarbonylamino]-3-methyl-isoxazol-5-yl}-benzylamino)-3-cyclopropyl-propionic Acid] |
| > 50000 | Cc1c(NC(=O)O[C@H](C)c2ccccc2)c(-c2ccc(C(=O)N[C@H](Cc3ccccc3)C(=O)O)cc2)nn1C [Example 8, (R)-2-[[4-[1,5-dimethyl-4-((R)-1-phenylethoxycarbonylamino)pyrazol-3-yl]benzoyl]amino]-3-phenyl-propanoic Acid] |
| > 50000 | Cc1nn(C)c(-c2ccc(C(=O)N[C@H](Cc3ccc(Br)cc3)C(=O)O)cc2)c1NC(=O)O[C@H](C)c1ccccc1 [Example 11, (R)-3-(4-bromophenyl)-2-[[4-[2,5-dimethyl-4-((R)-1-phenylethoxycarbonyl-amino)pyrazol-3-yl]benzoyl]amino]propanoic Acid] |
| > 50000 | (R)-3-(4-bromophenyl)-2-[[4-[1,5-dimethyl-4-((R)-1-phenylethoxycarbonyl-amino)pyrazol-3-yl]benzoyl]amino]propanoic acid [Example 12] |
| > 50000 | Cc1noc(-c2ccc(C(=O)N[C@H](C(=O)O)c3ccccc3)cc2)c1NC(=O)OC(C)c1ccccc1Cl (mixture of isomers) [Example 3, 2-(S)-(4-{4-[(R,S)-1-(2-Chloro-phenyl)-ethoxycarbonylamino]-3-methyl-isoxazol-5-yl}-benzoylamino) Phenyl Acetic Acid] |
| 300 to 1000 | C[C@@H](OC(=O)Nc1c(C(F)(F)F)cnn1-c1ccc(-c2ccc(C3(C(=O)O)CC3)cc2)cc1)c1ccccc1 [Example 54, (R)-1-{4′-[5-(1-Phenyl-ethoxycarbonylamino)-4-trifluoromethyl-pyrazol-1-yl]-biphenyl-4-yl}-cyclopropanecarboxylic Acid] |
| 1000 to 50000 | Cc1noc(-c2ccc(C(=O)NC3(C(=O)O)Cc4ccccc4C3)cc2)c1NC(=O)OC(C)c1ccccc1Cl (stereo not shown) [Example 2, 2-(4-{4-[1-(2-Chloro-phenyl)-ethoxycarbonylamino]-3-methyl-isoxazol-5-yl}-benzoylamino)-indan-2-carboxylic Acid] |
| > 50000 | Cc1c(NC(=O)O[C@H](C)c2ccccc2)c(-c2ccc(C(=O)N[C@H](Cc3ccc(F)c(F)c3)C(=O)O)cc2)nn1C [Example 16, (R)-3-(3,4-difluorophenyl)-2-[[4-[1,5-dimethyl-4-((R)-1-phenylethoxycarbonyl-amino)pyrazol-3-yl]benzoyl]amino]propanoic Acid] |
